From publication PMC6259833, “Antioxidant Bibenzyl Derivatives from Notholaena nivea Desv” (Molecules, 2011)
Entries after “also recorded” stand apart in the source; their conditions may differ.

Assays:
[1] = Coupled oxidation of β-carotene and linoleic acid (linoleic acid autoxidation assay); settings: 15 µg/mL; for Linoleic acid autoxidation inhibition (AA), 1 h: t = 60 min; for Linoleic acid autoxidation inhibition (AA), 1 h / Linoleic acid autoxidation inhibition (AA), 2 h: β-carotene bleaching, 50 °C; for Linoleic acid autoxidation inhibition (AA), 2 h: t = 120 min; for antioxidant activity in β-carotene/linoleic acid model (in words): compared with BHT standard
Protocol: Heat-induced oxidation of an aqueous emulsion system of β-carotene and linoleic acid was measured by the method described by Pratt (1992). A quantity of linoleic acid (20 mg) and Tween 20 (200 mg) were placed in a flask, and a solution of β-carotene (2 mg) in CHCl3 (10 mL) was added. After removal of CHCl3, oxygenated distilled water (50 mL) was added. Aliquots of each compound (200 µL), dissolved in ethanol to a 15 µg/mL solution, were added to each flask with shaking. Samples without test compounds were used as blanks and sample with 2,6 di-tert-butyl-4-methylphenol (BHT) was used as a control substance. Samples were subjected to the oxidation, by placing them in an oven at 50 °C for 3 hours. The absorbance was red at 470 nm at regular intervals to monitor the rate of bleaching of ß-carotene. The antioxidant activities was expressed as AA, calculated with the equation Inhibitory ratio (AA) = 100 [1−A0−At]/ A00−A0t; where A0 was the absorbance at the beginning of the incubation, with compound; At was the absorbance at the time t, with compound; A00 was the absorbance at beginning of the incubation, without compound; A0t the absorbance at the time t, without compound. Each experiment was performed in triplicate.

[2] = TEAC free radical scavenging assay (ABTS radical cation); settings: for TEAC: Trolox concentration with inhibition equivalent to a 1 mM solution of the compound, ABTS+., 734 nm, mean ± SD, triplicate
Protocol: The TEAC value is based on the ability of the antioxidant to scavenge the ABTS^+.. ABTS^+. cation radical was produced by the reaction between ABTS (7 mM) in water and potassium persulfate (2.45 mM), kept in the dark at room temperature for 12 hours. ABTS^+. is a blue-green cromogen with a characteristic absorption at 734 nm. The ABTS^+. solution was diluted with PBS, pH 7.4, to an absorbance of 0.70 at 734 nm and equilibrated at 30 °C.
Samples were diluted with methanol to have 0.3 mM, 0.5 mM, 1 mM, 1.5 mM, 2 mM solutions. The reaction was enhanced by the addition of diluted ABTS (1 mL) to 10 µL of each solution of sample or Trolox (standard), or […] of methanol (blank). The determination was repeated three times for each sample solution. The percentage inhibition of absorbance at 734 nm was calculated for each concentration in function of the blank’s absorbance. The percentage inhibition was plotted as a function of compound or standard concentration. The antioxidant activities of compounds 1-6 are expressed as TEAC, Trolox equivalent antioxidant activity. TEAC value is defined as the concentration of standard Trolox solution with equivalent percentage inhibition to a 1 mM concentration solution of the compound after investigation.

xanthine oxidase (XOD) = biological target: T1, xanthine oxidase (XOD) (Bos taurus, UniProt P80457); assay: Xanthine oxidase inhibition assay (uric acid formation); assay type: biochemical; settings: for IC50: uric acid from xanthine, 295 nm, mean ± SD
T1 construct: purchased Sigma Aldrich (Gillingam, Dorset, U.K.)
Protocol: Xanthine oxidase inhibition activity was evaluated by the spectrophotometric measurement of the formation of uric acid by xanthine. A 100 µM solution of xanthine in 0.1 M phosphate buffer pH 7.8 with 0.04 units/mL of xanthine oxidase was incubated for 10 min at room temperature and read at 295 nm against a blank sample. Various concentrations of testing compounds were added to samples before the enzyme has been instilled and their effect on the generation of uric acid was used to calculate regression lines and IC50 values.

[3] = Superoxide anion enzymatic generation assay (xanthine/xanthine oxidase, NBT reduction); assay type: biochemical; settings: xanthine/XOD system, 560 nm, mean ± SD, read-out: Superoxide anion scavenging activity IC50
Protocol: Superoxide anion was generated in an enzymatic system by preparing a mixture of xanthine and xanthine oxidase. The reaction mixture included 0.1 mM EDTA, 50 µg/mL bovine serum albumine (BSA), 25 µM nitroblue tetrazolium, 0.1 mM xanthine and 3.3 × 10^−3 units xanthine oxidase (XOD) in 40 mM sodium carbonate buffer (pH 10.2) in a final volume of 3 mL. After incubation at 25 °C with increasing concentrations of samples, the absorbance of formazan produced was determined at 560 nm.
The inhibitory effect of samples on the generation of superoxide anion were estimated by the equation: Inhibitory ratio = (A0−A1) × 100/ A0; where A0 absorbance with no addition of sample and A1 absorbance with addition of sample. Inhibitory ratio for each sample was plotted as a function of the concentration, then was calculated the IC50 value, with the statistical method of linear regression.

Caco-2 cells = assay: H2O2-induced cytotoxicity in differentiated Caco-2 cells, neutral red assay; assay type: cell-based, human; settings: for viability at 250 µM: compound 250 μmol/L; for protection against H2O2-induced toxicity (in words): compound 250 µmol/L, pretreatment before 10 mmol/L H2O2
Protocol: The Caco-2 cells strain was obtained from Prof. A. Leone research group (Dipartimento di Scienze Farmaceutiche, Sezione Biologica, Università degli Studi di Salerno, Fisciano, Italy) and used between passages 75 to 90. The cells were routinely maintained in DMEM, containing 200 mL/L FCS, 10 mL/L of 100× nonessential aminoacids, 2 mmol/L L-glutamine, 5 × 10^4 IU/L penicillin, 50 mg/L streptomycin at 37 °C in a 5% CO2 atmosphere at 90-100% relative humidity. Cell were grown in 10-cm petri dishes. For experiments, cells were seeded at a density of 90,000 cells/cm^2 in a Transwell insert, and the medium (0.1 mL in the insert and 0.8 mL in the well) was changed every 48 h. Fourteen to sixteen days after confluence, the integrity of the monolayer of differentiated cells was monitored according to the method of Hildago et al..
An iron-free medium (EMEM) was used for the oxidative stress induction experiments. The oxidative stress was induced in the apical compartment of the transwell insert by addition of H2O2. After 20 h of incubation, several oxidative stress markers were measured. To assay the capacity of these compounds to protect Caco-2 cells from ROM-mediated oxidative injury, cells were preincubated for 4 h with compounds, which had been added to the apical side of monolayer. After the end of preincubation time, the medium was changed before the addition of the of the oxidative stress-inducing agents.
We assessed the cytotoxicity of ROM on Caco-2 by the viability test of neutral red uptake, performed according to the procedure of Fautz et al.. After oxidative stress induction the medium in the insert was removed and replaced with 0.1 mL of fresh medium containing […] neutral red. At the end of 3 h of incubation, the medium was removed and cells were washed twice with PBS; finally the incorporated neutral red was released from cells by incubation for 15 min at room temperature in the presence of 1 mL of cell lysis buffer containing acetic acid (1%, v/v) and ethanol (50% v/v). To measure the dye taken up, the cell lysis products were centrifuged and supernatants spectrophotometrically measured at 540 nm.

[4] = Homo sapiens, Caco-2, 4 h preincubation, then 10 mmol/L H2O2 for 20 h, neutral red, read-out: cell viability

T1 sequence (P80457 2-1332 limits assumed): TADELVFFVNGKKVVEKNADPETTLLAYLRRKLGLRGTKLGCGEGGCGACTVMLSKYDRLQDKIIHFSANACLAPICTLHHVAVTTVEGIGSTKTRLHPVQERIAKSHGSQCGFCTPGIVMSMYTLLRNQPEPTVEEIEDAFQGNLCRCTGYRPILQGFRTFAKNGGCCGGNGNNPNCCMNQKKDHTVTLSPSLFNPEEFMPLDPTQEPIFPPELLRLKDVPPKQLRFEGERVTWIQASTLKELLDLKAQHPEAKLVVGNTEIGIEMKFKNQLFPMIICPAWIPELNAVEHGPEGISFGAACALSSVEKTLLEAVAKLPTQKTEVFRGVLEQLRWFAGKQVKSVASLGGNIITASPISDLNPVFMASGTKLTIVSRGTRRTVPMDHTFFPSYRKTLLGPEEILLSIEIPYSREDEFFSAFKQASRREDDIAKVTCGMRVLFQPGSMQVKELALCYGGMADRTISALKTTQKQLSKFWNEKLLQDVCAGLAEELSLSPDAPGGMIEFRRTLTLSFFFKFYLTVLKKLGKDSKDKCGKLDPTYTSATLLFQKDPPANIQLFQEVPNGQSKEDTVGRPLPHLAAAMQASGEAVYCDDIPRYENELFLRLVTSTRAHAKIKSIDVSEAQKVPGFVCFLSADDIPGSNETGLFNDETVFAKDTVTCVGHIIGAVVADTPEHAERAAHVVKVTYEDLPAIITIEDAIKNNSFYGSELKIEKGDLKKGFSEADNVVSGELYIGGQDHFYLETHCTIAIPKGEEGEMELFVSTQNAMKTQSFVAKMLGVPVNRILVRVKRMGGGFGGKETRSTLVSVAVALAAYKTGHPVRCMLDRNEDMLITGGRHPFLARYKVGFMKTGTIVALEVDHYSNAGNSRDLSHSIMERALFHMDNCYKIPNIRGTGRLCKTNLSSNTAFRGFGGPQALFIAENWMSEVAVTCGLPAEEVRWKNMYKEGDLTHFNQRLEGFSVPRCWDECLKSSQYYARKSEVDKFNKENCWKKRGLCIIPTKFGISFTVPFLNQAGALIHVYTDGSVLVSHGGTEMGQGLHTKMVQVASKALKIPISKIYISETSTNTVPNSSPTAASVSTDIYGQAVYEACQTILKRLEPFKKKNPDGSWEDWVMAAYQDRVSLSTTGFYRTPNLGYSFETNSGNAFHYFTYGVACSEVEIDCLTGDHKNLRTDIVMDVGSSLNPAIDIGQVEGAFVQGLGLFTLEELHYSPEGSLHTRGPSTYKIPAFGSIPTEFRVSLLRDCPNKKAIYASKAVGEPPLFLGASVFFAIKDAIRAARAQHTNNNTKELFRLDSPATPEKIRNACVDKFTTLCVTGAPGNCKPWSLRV

Row | Structure (SMILES) | activity as direct inhibitor of xanthine oxidase (in words) (xanthine oxidase (XOD)) | IC50 (xanthine oxidase (XOD)) [µM] | IC50 [3] [µM] | Linoleic acid autoxidation inhibition (AA), 1 h [1] [%] | Linoleic acid autoxidation inhibition (AA), 2 h [1] [%] | antioxidant activity in β-carotene/linoleic acid model (in words) [1] | radical scavenging activity in ABTS/TEAC test (in words) [2] | TEAC [2] [mM] | viability at 250 µM (Caco-2 cells; [4]) [%] | viability at 500 µM (Caco-2 cells; Homo sapiens, Caco-2, compound 500 μmol/L, 4 h preincubation, then 10 mmol/L H2O2 for 20 h, neutral red, read-out: cell viability) [%] | protection against H2O2-induced toxicity (in words) (Caco-2 cells) | protection against H2O2-induced alterations (in words) (Caco-2 cells; compound 500 µmol/L preincubation) | viability at 125 µM (Caco-2 cells; Homo sapiens, Caco-2, compound 125 μmol/L, 4 h preincubation, then 10 mmol/L H2O2 for 20 h, neutral red, read-out: cell viability) [%] | loss of cell viability (Caco-2 cells; 20 h of treatment with 10 mmol/L H2O2) | cell viability (Caco-2 cells; H2O2 10 mmol/L alone, 20 h, neutral red) [%]
1 | Cc1cc(C(C)(C)C)c(O)c(C(C)(C)C)c1 [BHT, 2,6 di-tert-butyl-4-methylphenol, reference compound] | – | – | – | 60.00 | 51.07 | – | – | – | – | – | – | – | – | – | –
2 | COc1cc(O)c(C(=O)O)c(CCc2ccc(O)cc2)c1 [Compound 1, 5,12-dihydroxy-3-methoxy-dibenzyl-6-carboxylic acid] | no activity | > 100 | 96.93 ± 0.42 | 32.60 | 11.70 | highest activity after 1h; also recorded: moderate activity | most active | 1.98 ± 0.05 | 80 | 88 | inactive | prevented | – | – | –
3 | COc1cc(O)cc(CCc2ccc(O)cc2)c1 [Compound 6, 3,12-dihydroxy-5-methoxybibenzyl] | no activity | > 100 | 83.3 ± 1.06 | 29.35 | 7.31 | moderate activity | most active compound | 2.55 ± 0.02 | 98 | – | no decrease in cell viability; also recorded: prevent H2O2-induced cytotoxicity; also recorded: prevented | – | 90 | – | –
4 | OO [Compound H2O2, hydrogen peroxide, reference compound] | – | – | – | – | – | – | – | – | – | – | – | – | – | about 25% | 75
5 | Oc1ccc(CCc2cc(O)cc(O)c2)cc1 [Dihydroresveratrol, reference compound] | – | > 100 | 60.9 ± 1.12 | 16.11 | 20.12 | lower activity | – | 2.3 ± 0.07 | – | – | – | – | – | – | –
6 | O=c1c(O)c(-c2ccc(O)c(O)c2)oc2cc(O)cc(O)c12 [Quercetin, quercetin, reference compound] | – | – | – | – | – | – | – | 2.91 ± 0.02 | – | – | – | – | – | – | –

Continued, in another order:

Row | activity as direct inhibitor of xanthine oxidase (in words) (xanthine oxidase (XOD)) | IC50 (xanthine oxidase (XOD)) [µM] | IC50 [3] [µM] | Structure (SMILES) | Linoleic acid autoxidation inhibition (AA), 1 h [1] [%] | Linoleic acid autoxidation inhibition (AA), 2 h [1] [%] | antioxidant activity in β-carotene/linoleic acid model (in words) [1] | radical scavenging activity in ABTS/TEAC test (in words) [2] | TEAC [2] [mM] | viability at 250 µM (Caco-2 cells; [4]) [%] | viability at 500 µM (Caco-2 cells; Homo sapiens, Caco-2, compound 500 μmol/L, 4 h preincubation, then 10 mmol/L H2O2 for 20 h, neutral red, read-out: cell viability) [%] | protection against H2O2-induced toxicity (in words) (Caco-2 cells) | protection against H2O2-induced alterations (in words) (Caco-2 cells; compound 500 µmol/L preincubation) | viability at 125 µM (Caco-2 cells; Homo sapiens, Caco-2, compound 125 μmol/L, 4 h preincubation, then 10 mmol/L H2O2 for 20 h, neutral red, read-out: cell viability) [%] | loss of cell viability (Caco-2 cells; 20 h of treatment with 10 mmol/L H2O2) | cell viability (Caco-2 cells; H2O2 10 mmol/L alone, 20 h, neutral red) [%]
7 | moderate activity | 71.39 ± 0.45 | 81.11 ± 0.68 | COc1cc(CCc2ccc(O)cc2)c(C(=O)O)c(OC(C)=O)c1 [Compound 2, 5-acetyloxy-12-hydroxy-3-methoxybibenzyl-6-carboxylic acid] | 28.51 | 19.16 | moderate activity | – | 1.38 ± 0.01 | – | – | – | – | – | – | –
8 | no activity | > 100 | 78.2 ± 1.15 | COc1cc(CCc2ccc(O)cc2)cc(Oc2ccc(CCc3cc(OC)cc(O)c3C(=O)O)cc2)c1 [Compound 3, 12-O-[3’-(5’-methoxy-12’-hydroxy)-bibenzyl]-5-hydroxy-3-methoxybibenzyl-6-carboxylic acid] | 0 | 0 | no activity | – | 1.22 ± 0.02 | – | – | – | – | – | – | –
9 | no activity | > 100 | 81.3 ± 2.01 | COc1cc(CCc2ccc(Oc3cc(CCc4ccc(Oc5cc(CCc6ccc(O)cc6)c(C(=O)O)c(OC)c5)cc4)c(C(=O)O)c(OC)c3)cc2)c(C(=O)O)c(OC)c1 [Compound 4, 3-O-{12’-[12’’-O-(3’’,5’’-dimethoxy-6’’-carboxybibenzyl)]-5’-methoxy-6’-carboxybibenzyl}-12-hydroxy-5-methoxybibenzyl-6-carboxylic acid] | 0 | 0 | no activity | – | 1.5 ± 0.03 | – | – | – | – | – | – | –
10 | moderate activity | 64 ± 2.13 | 58.4 ± 1.18 | COc1ccc(CCc2cc(OC)cc(O)c2C(=O)O)cc1 [Compound 5, 5-hydroxy-3,12-dimethoxy-6-carboxybibenzyl] | 26.56 | 19.72 | moderate activity | – | 1.21 ± 0.01 | – | – | – | – | – | – | –
